One series relates to blood pressure. The experiment in a line: Hypotensive activity (blood pressure reduction) in rabbits under urethane anesthesia, i.v. The conditions noted are these: for ED (20 mm Hg): Oryctolagus cuniculus, iv, urthane anesthesia, dose producing lasting reduction of 20 mm Hg of blood pressure, arteria carotis, read-out: Hypotensive ED20 in rabbits. Type of series: in vivo. As to the method:
The hypotensive activity of the test compounds was determined on a statistically significant number of rabbits under urthane anesthesia. The blood pressure of the test animals was continuously measured in the arteria carotis by means of a mercury manometer before and after the i.v. administration of the test compound at varying dosage levels. The ED20 was determined, that is, the dose which produced a lasting reduction of 20 mm Hg of the blood pressure.

The nature of another series: pKa-value. Type of series: physicochemical.
Series [1] can be described thus: Stomach juice secretion inhibition, method of Shay et al. Conditions: rat, in vivo; dose reducing volume of stomach juice secreted by 50% and total acidity by 50%; measure of dryness of the mouth; read-out: Stomach juice secretion inhibiting ED50 in rats. As to the method:
The effect on the stomach juice secretion was determined on rats by the standard test method of Shay et al, Gastroenterology 5, 43 (1943), and the ED50 was calculated for each test compound, that is, the dose which reduces the volume of stomach juice secreted over a given amount of time by 50%, and at the same time produces a 50% reduction in the total acidity of the secreted stomach juice volume.

The nature of series [2]: Hygroscopicity of acid addition salts. Type of series: physicochemical.

Eleven compounds from US4166859A, “2-Bromo-6-fluoro-N-(2-imidazolidinylidene)-benzamine and salts thereof and the use to treat hypertension” (Boehringer Ingelheim GmbH, priority 1976, dated 1979) can be followed below.

Molecules are shown by their SMILES. Where a name gives a salt, the structure may show the parent alone.

What is called pKa is the negative logarithm of the acid dissociation constant. Lower therefore signals a group that gives up its proton readily. One may read the ED50 as the dose that gives a 50% effect, or the effect in half of the subjects.

Turning to `Fc1cccc(Br)c1NC1=NCCN1` [2-bromo-6-fluoro-N-(2-imidazolidinylidene)-benzamine monohydrochloride], the ED (20 mm Hg) with blood pressure is 0.01 mg/kg. Besides, the pKa in “pKa-value” is 8.2. In addition, the ED50 in series [1] is 0.1 mg/kg. Take `Fc1cccc(Br)c1N=C1NCCN1` [Benzoate]: the hygroscopicity result in series [2] is recorded as “slightly hygroscopic”. Still for that read-out and setting: in the case of `Fc1cccc(Br)c1N=C1NCCN1` [Citrate] it was “hygroscopic”. Take `Clc1cccc(Cl)c1NC1=NCCN1` [Clonidine . HCl, 2-(2,6-dichloroanilino)-2-imidazoline, reference compound]: the ED (20 mm Hg) in the series with blood pressure was determined as 0.01 mg/kg. In addition, the ED50 in series [1] stood at 0.04 mg/kg. As for `Fc1cccc(Br)c1N=C1NCCN1` [Hydrobromide], in series [2], the hygroscopicity result is “hygroscopic”.

For the compound `Fc1cccc(Br)c1N=C1NCCN1` [Methanesulfonate], the hygroscopicity entry in series [2] is “hygroscopic”. Take `Fc1cccc(Br)c1N=C1NCCN1` [Nitrate]: in series [2], the hygroscopicity result was “slightly hygroscopic”. Regarding `Fc1cccc(Br)c1N=C1NCCN1` [Oxalate], in series [2], the hygroscopicity entry is reported as “hygroscopic”. Same read-out and setting: with `Fc1cccc(Br)c1N=C1NCCN1` [Tartrate] the entry was “hygroscopic”; with `Fc1cccc(Br)c1N=C1NCCN1` [Tosylate], “hygroscopic”. Regarding `Clc1cccc(Cl)c1NC1=NCCN1` [clonidine, 2-(2,6-dichloroanilino)-2-imidazoline], in the series with blood pressure (comparison with 2-bromo-6-fluoro-N-(2-imidazolidinylidene)-benzamine), the “antihypertensive efficacy relative to the invention compound” value is “equal antihypertensive efficacy”.
